Assay results as given in patent US20220281863A1, “COMPOUNDS, COMPOSITIONS AND METHODS OF TREATING DISORDERS” (Reverie Labs, Inc., priority 2019, published 2022).

Target: T1, CDK9/CycTI (Homo sapiens, UniProt P50750)
T1 construct: purchased Carna biosciences 04-110
Assay: In vitro kinase assay (ADP-Glo Kinase Assay Kit), CDK9/CycTI
Assay type: biochemical
Conditions: 30 ng CDK9/CycTI, 30 μM CDKtide, 10 μM ATP, 2 hours at room temperature; 8 to 10-point dose response (Tier2); read-out: IC50 Score
Procedure: In vitro kinase assay was performed in white, 384-low volume plates in 5 μl reaction volume consisting of 30 ng CDK9/CycTI (Carna biosciences #04-110), 30 μM CDKtide (Signalchem #C06-58) and 10 μM ATP made in reaction buffer (40 mM Tris, pH 7.5; 20 mM MgCl2; 0.1 mg/ml BSA; 50 μM DTT) at 1 μM & 10 μM compound concentration for Tier1 assay and 8 to 10-point dose response curve for Tier2 assay. After 2 hours of incubation at room temperature, the amounts of […] in the kinase reaction were quantified using ADP-Glo™ Kinase Assay Kit (Promega #V9102). Briefly, 5 μl of ADP-Glo™ reagent was added to stop the kinase reaction and plate was incubated for 40 minutes at room temperature. Subsequently, 10 μl of Kinase Detection Reagent was added and luminescence was recorded after 30 minutes of incubation at room temperature.
The inhibition of kinase activity was determined relative to positive control (2% DMSO) and IC50 was calculated using GraphPad prism software (four parameter-variable slope equation).

T1 sequence (P50750 whole entry): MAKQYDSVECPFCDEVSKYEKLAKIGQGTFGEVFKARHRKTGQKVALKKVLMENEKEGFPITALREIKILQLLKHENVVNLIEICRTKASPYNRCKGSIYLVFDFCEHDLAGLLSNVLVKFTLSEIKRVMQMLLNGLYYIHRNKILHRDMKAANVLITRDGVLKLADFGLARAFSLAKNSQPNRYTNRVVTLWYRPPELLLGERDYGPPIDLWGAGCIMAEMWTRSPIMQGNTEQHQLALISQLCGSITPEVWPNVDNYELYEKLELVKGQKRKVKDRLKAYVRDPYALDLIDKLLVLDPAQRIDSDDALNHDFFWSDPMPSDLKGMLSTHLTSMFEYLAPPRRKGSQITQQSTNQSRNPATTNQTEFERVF
T1 sequence (O60563 whole entry partner): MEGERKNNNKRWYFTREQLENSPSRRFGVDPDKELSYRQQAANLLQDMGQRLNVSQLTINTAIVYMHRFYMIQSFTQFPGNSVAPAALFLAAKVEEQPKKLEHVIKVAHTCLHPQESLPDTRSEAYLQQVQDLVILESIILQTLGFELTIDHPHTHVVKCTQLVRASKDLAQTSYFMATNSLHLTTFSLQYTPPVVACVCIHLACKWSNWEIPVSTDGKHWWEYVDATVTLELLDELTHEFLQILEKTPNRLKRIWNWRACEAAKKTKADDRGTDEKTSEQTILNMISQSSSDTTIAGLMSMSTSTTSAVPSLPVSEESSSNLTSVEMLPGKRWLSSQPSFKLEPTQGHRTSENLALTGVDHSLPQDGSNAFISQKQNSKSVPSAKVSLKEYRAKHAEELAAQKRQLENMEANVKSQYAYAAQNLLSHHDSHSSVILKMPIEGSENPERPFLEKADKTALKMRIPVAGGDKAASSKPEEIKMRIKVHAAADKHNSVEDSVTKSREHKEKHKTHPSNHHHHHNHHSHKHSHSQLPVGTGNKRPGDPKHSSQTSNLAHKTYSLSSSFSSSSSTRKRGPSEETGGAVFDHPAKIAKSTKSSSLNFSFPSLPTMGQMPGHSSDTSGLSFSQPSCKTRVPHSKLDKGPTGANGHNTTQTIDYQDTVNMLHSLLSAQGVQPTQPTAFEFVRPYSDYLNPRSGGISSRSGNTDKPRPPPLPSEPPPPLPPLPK

SMILES | IC50 [µM]
CC(=O)N1CC(C(=O)Nc2nc3ccc4cc(F)ccc4c3s2)C1 [Compound 28, 1-acetyl-N-(7-fluoronaphtho[2,1-d]thiazol-2-yl)azetidine-3-carboxamide] | 0.1 to 0.5
CC(C)(C)OC(=O)N[C@H]1CCC[C@@H](C(=O)Nc2nc3ccc4cc(F)ccc4c3s2)C1 [Compound 30, Tert-butyl ((1S,3R)-3-((7-fluoronaphtho[2,1-d]thiazol-2-yl)carbamoyl)cyclohexyl) carbamate] | 0.1 to 0.5
CC(C)(C)OC(=O)N1CC[C@@H]1C(=O)Nc1nc2ccc3cc(F)ccc3c2s1 [Compound 35, Tert-butyl (R)-2-((7-fluoronaphtho[2,1-d]thiazol-2-yl)carbamoyl)azetidine-1-carboxylate] | 1 to 20
CC(=O)N1CCC[C@@H](C(=O)Nc2nc3ccc4cc(F)ccc4c3s2)C1 [Compound 38, 1-acetyl-N-(7-fluoronaphtho[2,1-d]thiazol-2-yl)piperidine-3-carboxamide] | 0.1 to 0.5
CC(C)(C)OC(=O)N1CCC(C(=O)Nc2nc3ccc4cc(F)ccc4c3s2)CC1 [Compound 40] | 1 to 20
C=CC(=O)N1CCC[C@@H]1C(=O)Nc1nc2ccc3cc(F)ccc3c2s1 [Compound 44, (R)-1-acryloyl-N-(7-fluoronaphtho[2,1-d]thiazol-2-yl)pyrrolidine-2-carboxamide] | 0.001 to 0.1
CC(=O)N1CCC[C@H](C(=O)Nc2nc3ccc4cc(F)ccc4c3s2)C1 [Compound 45, (S)-1-acetyl-N-(7-fluoronaphtho[2,1-d]thiazol-2-yl)piperidine-3-carboxamide] | 0.001 to 0.1
CC(C)(C)OC(=O)N[C@H]1CCC[C@H](C(=O)Nc2nc3ccc4cc(F)ccc4c3s2)C1 [Compound 46] | 0.5 to 1
O=C(Nc1nc2ccc3cc(F)ccc3c2s1)[C@@H]1CCCN1 [Compound 47, (S)—N-(7-fluoronaphtho[2,1-d]thiazol-2-yl)pyrrolidine-2-carboxamide] | 0.5 to 1
O=C(Nc1nc2ccc3cc(F)ccc3c2s1)c1ccno1 [Compound 49, N-(7-fluoronaphtho[2,1-d]thiazol-2-yl)isoxazole-5-carboxamide] | 1 to 20
O=C(Nc1nc2ccc3cc(F)ccc3c2s1)c1cn[nH]c1 [Compound 50, N-(7-fluoronaphtho[2,1-d]thiazol-2-yl)-1H-pyrazole-4-carboxamide] | 1 to 20
CC(=O)N1CC[C@H](C(=O)Nc2nc3ccc4cc(F)ccc4c3s2)C1 [Compound 52, (S)-1-acetyl-N-(7-fluoronaphtho[2,1-d]thiazol-2-yl)pyrrolidine-3-carboxamide] | 0.001 to 0.1
O=C(Nc1nc2ccc3cc(F)ccc3c2s1)c1c[nH]cn1 [Compound 53, N-(7-fluoronaphtho[2,1-d]thiazol-2-yl)-1H-imidazole-4-carboxamide] | 1 to 20
O=C(Nc1nc2ccc3cc(F)ccc3c2s1)[C@H]1CC[C@@H](N2CCOCC2)C1 [Compound 57, (1S,3R)—N-(7-fluoronaphtho[2,1-d]thiazol-2-yl)-3-morpholinocyclopentane-1-carboxamide] | 0.001 to 0.1
O=C(Nc1nc2ccc3cc(F)ccc3c2s1)C1CNC1 [Compound 58, N-(7-fluoronaphtho[2,1-d]thiazol-2-yl)azetidine-3-carboxamide] | 0.1 to 0.5
CC(C)(C)OC(=O)N1CC[C@H](C(=O)Nc2nc3ccc4cc(F)ccc4c3s2)C1 [Compound 59, Tert-butyl (S)-3-((7-fluoronaphtho[2,1-d]thiazol-2-yl)carbamoyl)pyrrolidine-1-carboxylate] | 0.5 to 1
CC(C)(C)OC(=O)N1CCC[C@H](C(=O)Nc2nc3ccc4cc(F)ccc4c3s2)C1 [Compound 62, tert-butyl (S)-3-((7-fluoronaphtho[2,1-d]thiazol-2-yl)carbamoyl)piperidine-1-carboxylate] | 1 to 20
CC(C)(C)C(=O)N1CCC(C(=O)Nc2nc3ccc4cc(F)ccc4c3s2)CC1 [Compound 64] | 0.5 to 1
O=C(Nc1nc2ccc3cc(F)ccc3c2s1)[C@@H]1CCCCN1 [Compound 68] | 0.5 to 1
CC(=O)N1CC[C@@H]1C(=O)Nc1nc2ccc3cc(F)ccc3c2s1 [Compound 69, (R)-1-acetyl-N-(7-fluoronaphtho[2,1-d]thiazol-2-yl)azetidine-2-carboxamide] | 0.001 to 0.1
CC(=O)N1CC[C@H]1C(=O)Nc1nc2ccc3cc(F)ccc3c2s1 [Compound 73, (S)-1-acetyl-N-(7-fluoronaphtho[2,1-d]thiazol-2-yl)azetidine-2-carboxamide] | 1 to 20
O=C(Nc1nc2ccc3cc(F)ccc3c2s1)[C@H]1CCCN1 [Compound 74] | 0.5 to 1
O=C(Nc1nc2ccc3cc(F)ccc3c2s1)[C@@H]1CCCO1 [Compound 78, (S)—N-(7-fluoronaphtho[2,1-d]thiazol-2-yl)tetrahydrofuran-2-carboxamide] | 0.1 to 0.5
O=C(Nc1nc2ccc3cc(F)ccc3c2s1)c1nncs1 [Compound 80] | 1 to 20
CC(C)(C)OC(=O)N1CC[C@H]1C(=O)Nc1nc2ccc3cc(F)ccc3c2s1 [Compound 84, Tert-butyl (S)-2-((7-fluoronaphtho[2,1-d]thiazol-2-yl)carbamoyl)azetidine-1-carboxylate] | 1 to 20
O=C(Nc1nc2ccc3cc(F)ccc3c2s1)[C@@H]1CCN1 [Compound 85, (S)—N-(7-fluoronaphtho[2,1-d]thiazol-2-yl)azetidine-2-carboxamide] | 0.1 to 0.5
CC(=O)N1CCC(C(=O)Nc2nc3ccc4cc(F)ccc4c3s2)CC1 [Compound 86] | 0.001 to 0.1
CC(C)(C)OC(=O)N1CC[C@@H](C(=O)Nc2nc3ccc4cc(F)ccc4c3s2)C1 [Compound 89] | 1 to 20
O=C(Nc1nc2ccc3cc(F)ccc3c2s1)[C@H]1CCN1 [Compound 90, (R)—N-(7-fluoronaphtho[2,1-d]thiazol-2-yl)azetidine-2-carboxamide] | 0.5 to 1

Results, then the compound that gave them:

IC50 [µM] | SMILES
1 to 20 | CN1CC(C(=O)Nc2nc3ccc4cc(F)ccc4c3s2)C1 [Compound 29]
0.1 to 0.5 | O=C(Nc1nc2ccc3cc(F)ccc3c2s1)[C@H]1CCNC1 [Compound 31, (S)—N-(7-fluoronaphtho[2,1-d]thiazol-2-yl)pyrrolidine-3-carboxamide]
0.1 to 0.5 | C=CC(=O)N[C@H]1CCC[C@@H](C(=O)Nc2nc3ccc4cc(F)ccc4c3s2)C1 [Compound 33, (1R,3S)-3-acrylamido-N-(7-fluoronaphtho[2,1-d]thiazol-2-yl)cyclohexane-1-carboxamide]
0.1 to 0.5 | CC(C)(C)OC(=O)N[C@@H]1CC[C@H](C(=O)Nc2nc3ccc4cc(F)ccc4c3s2)C1 [Compound 34]
0.001 to 0.1 | CN(C)[C@@H]1CC[C@H](C(=O)Nc2nc3ccc4cc(F)ccc4c3s2)C1 [Compound 39]
0.001 to 0.1 | C=CC(=O)N[C@@H]1CCC[C@H](C(=O)Nc2nc3ccc4cc(F)ccc4c3s2)C1 [Compound 41, (1S,3R)-3-acrylamido-N-(7-fluoronaphtho[2,1-d]thiazol-2-yl)cyclohexane-1-carboxamide]
0.1 to 0.5 | O=C(Nc1nc2ccc3cc(F)ccc3c2s1)[C@H]1CCOC1 [Compound 42]
0.1 to 0.5 | O=C(Nc1nc2ccc3cc(F)ccc3c2s1)C1CCNCC1 [Compound 43]
0.001 to 0.1 | O=C(Nc1nc2ccc3cc(F)ccc3c2s1)[C@@H]1CCOC1 [Compound 60, (R)—N-(7-fluoronaphtho[2,1-d]thiazol-2-yl)tetrahydrofuran-3-carboxamide]
0.1 to 0.5 | N[C@H]1CCC[C@@H](C(=O)Nc2nc3ccc4cc(F)ccc4c3s2)C1 [Compound 63, (1R,3S)-3-amino-N-(7-fluoronaphtho[2,1-d]thiazol-2-yl)cyclohexane-1-carboxamide]
0.1 to 0.5 | CN1CCC(C(=O)Nc2nc3ccc4cc(F)ccc4c3s2)C1 (stereo not shown) [Compound 65, N-(7-fluoronaphtho[2,1-d]thiazol-2-yl)-1-methylpyrrolidine-3-carboxamide]
0.001 to 0.1 | CC(=O)N(C)[C@@H]1CC[C@H](C(=O)Nc2nc3ccc4cc(F)ccc4c3s2)C1 [Compound 71, (1S,3R)—N-(7-fluoronaphtho[2,1-d]thiazol-2-yl)-3-(N-methylacetamido)cyclopentane-1-carboxamide]
0.001 to 0.1 | O=C(CCl)N[C@@H]1CCC[C@H](C(=O)Nc2nc3ccc4cc(F)ccc4c3s2)C1 [Compound 75]
1 to 20 | O=C(Nc1nc2ccc3cc(F)ccc3c2s1)[C@@H]1CCNC1 [Compound 77]
0.001 to 0.1 | CC(=O)N[C@H]1CCC[C@@H](C(=O)Nc2nc3ccc4cc(F)ccc4c3s2)C1 [Compound 79, (1R,3S)-3-acetamido-N-(7-fluoronaphtho[2,1-d]thiazol-2-yl)cyclohexane-1-carboxamide]
0.5 to 1 | CC(=O)N[C@@H]1CCC[C@@H](C(=O)Nc2nc3ccc4cc(F)ccc4c3s2)C1 [Compound 81]
0.001 to 0.1 | CN[C@@H]1CC[C@H](C(=O)Nc2nc3ccc4cc(F)ccc4c3s2)C1 [Compound 87, (1S,3R)—N-(7-fluoronaphtho[2,1-d]thiazol-2-yl)-3-(methylamino)cyclopentane-1-carboxamide]
